Measured values: patent US20080226596A1, “Therapeutic compositions and methods useful in treating hepatitis” (priority 2006, published 2008)
“Also recorded” adds a separate entry of the source.

How the values were obtained:
MKP1 = target: T1, MKP1 (Homo sapiens, UniProt P28562); test: In vitro PTPase assay, GST/MKP1; type: biochemical
T1 construct: GST (N); made in house; host or cells: DH5a bacteria
T1 sequence (P28562 1-367): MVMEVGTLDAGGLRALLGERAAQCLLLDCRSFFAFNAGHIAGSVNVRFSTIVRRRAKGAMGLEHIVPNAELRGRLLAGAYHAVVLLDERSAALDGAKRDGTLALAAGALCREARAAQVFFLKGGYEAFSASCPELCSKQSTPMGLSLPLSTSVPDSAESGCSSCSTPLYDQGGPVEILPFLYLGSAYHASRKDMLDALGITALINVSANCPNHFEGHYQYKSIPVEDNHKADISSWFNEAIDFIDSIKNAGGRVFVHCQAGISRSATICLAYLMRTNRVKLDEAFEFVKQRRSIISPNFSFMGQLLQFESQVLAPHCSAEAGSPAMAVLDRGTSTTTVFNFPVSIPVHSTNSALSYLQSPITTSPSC
Description: (§1) In vitro PTPase activities were measured using the commercial protein tyrosine phosphatase assay kit (Upstate Biotechnology, Inc. (“UBI”)) following established procedure known to one of skill in the art. This assay measures the in vitro dephosphorylation of a synthetic phosphotyrosine peptide of the sequence Arg-Arg-Leu-Ile-Glu-Asp-Ala-Gle-Tyr-Ala-Ala-Arg-Gly, wherein the tyrosine is phosphorylated (SEQ ID NO: 3). Briefly, 0.01 µg of GST/PTPase fusion proteins was incubated in 50 μL of Tris buffer (10 mM Tris, pH 7.4) containing different concentrations of inhibitors or chemicals (0-1,000 μg/ml) at 22° C. for 10 minutes, followed by addition of 0.2 mM of the phosphotyrosine peptide and incubation at 22° C. for 18 hours. 100 μL of Malachite Green solution was added and incubated for 5 minutes, and the absorbance at 660 nm was measured after 5 minutes.
(§2) In vitro PTPase assays were used to determine the effects of levamisole (Sigma), pentamidine (American Pharmaceutical Partners, Inc.), and ketoconazole (Sigma) on recombinant PTPases, following established procedures (Pathak et al., J. Imumol. 167, 3391 (2001); Pathak et al., Leukemia 16, 2285 (2002), Yi et al., J. Immunol. 169, 5978 (2002)) using a synthetic phosphotyrosine peptide or DiFMUP as the substrate as detailed above in section I.A.2.

SHP-1 = target: T2, SHP-1 (Mus musculus, UniProt P29351); test: In vitro PTPase assay, recombinant GST/SHP-1; type: biochemical; conditions: for inhibitory activity against SHP-1: 3-4 μg/ml or 10-100 μg/ml
T2 construct: made in house
Description: as §1
In vitro PTPase assays were used to determine the effects of compounds on recombinant PTPases, following established procedures using a synthetic phosphotyrosine peptide or DiFMUP as the substrate (Pathak et al., J. Imumol. 167, 3391 (2001)). Briefly, individual PTPases (0.1 µg/reaction) in 50 μL of PTPase buffer (50 mM Tris, pH 7.4) were incubated at 22° C. for 10 minutes or as indicated in the absence or presence of inhibitory compounds. Substrates (0.2 mM phosphotyrosine peptide) were then added and allowed to react at 22° C. for 18 hrs. PTPase activity of individual reactions was measured by adding 100 µL of malachite green solution (UBI) and then quantifying the amounts of free phosphate cleaved by the PTPase from the peptide substrate by spectrometry (OD660 nm). PTPase assays using DiFMUP as a substrate were conducted following a previously described procedure (Matter, et al., Biochem. Biophys. Res. Comm. 283, 1061 (2001)). Relative PTPase activities were calculated based on the formula: (PTPase activity in the presence of an inhibitory compound/PTPase activity in the absence of the compound)× 100%. To assess the reversibility of PTPase inhibition, GST fusion proteins of the PTPases bound on glutathione beads (Pharmacia) were pre-incubated with cold Tris buffer (50 mM Tris, pH 7.0) or Tris buffer containing the inhibitor at 4° C. for 30 minutes. The beads were then washed three times in cold Tris buffer or not washed prior to subjecting to in vitro PTPase assays.
as §2

T2 sequence (P29351 whole entry): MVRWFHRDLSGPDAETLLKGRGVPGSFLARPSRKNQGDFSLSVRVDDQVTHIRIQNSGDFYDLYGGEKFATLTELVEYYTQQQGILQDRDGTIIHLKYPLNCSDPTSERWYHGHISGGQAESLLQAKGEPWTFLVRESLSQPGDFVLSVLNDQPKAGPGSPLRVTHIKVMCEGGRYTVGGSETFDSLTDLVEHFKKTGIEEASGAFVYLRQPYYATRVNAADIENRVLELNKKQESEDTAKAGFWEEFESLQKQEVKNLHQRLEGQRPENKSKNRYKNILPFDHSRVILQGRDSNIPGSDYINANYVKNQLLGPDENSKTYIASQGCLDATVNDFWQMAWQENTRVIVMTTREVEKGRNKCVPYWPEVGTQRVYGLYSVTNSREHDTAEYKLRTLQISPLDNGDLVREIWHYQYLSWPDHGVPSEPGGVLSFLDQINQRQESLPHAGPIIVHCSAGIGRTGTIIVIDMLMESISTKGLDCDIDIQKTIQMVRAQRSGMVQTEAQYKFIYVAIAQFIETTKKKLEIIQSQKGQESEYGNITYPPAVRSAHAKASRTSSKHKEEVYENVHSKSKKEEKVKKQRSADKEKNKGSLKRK

Compound | inhibition of MKP1 (MKP1) | inhibitory activity against SHP-1 (SHP-1) | inhibitory activity against MKP1 (MKP1) | SHP-1 phosphatase activity (SHP-1; 10 μg/ml)
CC(=O)N1CCN(c2ccc(OCC3COC(Cn4ccnc4)(c4ccc(Cl)cc4Cl)O3)cc2)CC1 (stereo not shown) [ketoconazole] | substantial inhibition | no obvious inhibitory activity |  | 
N=C(N)c1ccc(OCCCCCOc2ccc(C(=N)N)cc2)cc1 [pentamidine] | substantial inhibition | no obvious inhibitory activity |  | 
O.O.O.O.O.O.O.O.O.O=C([O-])[C@@H]1[O][Sb]2([O-])([O][Sb]34([OH])[O][C@H]([C@H](O)CO)[C@H]([O]3)[C@H](C(=O)[O-])[O]4)[O][C@H]([C@H](O)CO)[C@@H]1[O]2.[Na+].[Na+].[Na+] [sodium stibogluconate] | no obvious effects |  | no obvious inhibitory activity | almost completely inhibited; also recorded: inactivated SHP-1
